# In article PMC7018803, “A randomized, placebo-controlled, phase 1 study to evaluate the effects of TAK-063 on ketamine-induced changes in fMRI BOLD signal in healthy subjects” (Psychopharmacology, 2019):
# What was measured:
# [1] = tested on: individuals with schizophrenia; design: method as in Macek et al. [2017]; settings: 20 mg; 6-week phase 2 study; ref Macek et al. [2017]; cited from earlier work
# [2] = tested on: phosphodiesterase 10A (PDE10A); design: method as in Seeger et al. [2003]; Suzuki et al. [2015]; settings: ref Seeger et al. [2003]; Suzuki et al. [2015]; cited from earlier work
# healthy male subjects [3] = assay: Resting state fMRI BOLD signal before ketamine infusion; format: in vivo, human; settings: 3-30 mg
# Experimental: Subjects checked in on day − 1 of each treatment period during which vital signs, electrocardiogram (ECG), and laboratory safety tests were repeated. On day 1 of each treatment period, subjects received a 3-, 10-, or 30-mg TAK-063 dose or placebo tablets. Participants then relaxed, slept, or watched movies while remaining in the research environment. Ketamine (0.12 mg/kg intravenous bolus over 60 s followed by a continuous infusion of 0.31 mg/kg/h over approximately 150 min) was administered 4 h after TAK-063 or placebo (Fig. 1). This ketamine dose was based on a previous study that achieved steady-state concentrations of 75 ng/mL and provided a robust BOLD signal with minimal psychotomimetic symptoms (De Simoni et al. [2013]).
# The scanning protocol for the current study was very comprehensive and included multiple MR approaches. This publication reports the BOLD fMRI data for the working memory task, but also resting state fMRI. The magnetic scanning portion of the neuroimaging test battery was initiated 20 min before ketamine dosing. Imaging was performed using a 3 Tesla Siemens Trio scanner. The MR scanning protocol was initiated 20 min before ketamine dosing; prior to scanning, a structural magnetization prepared rapid gradient echo (MPRAGE) scan was collected. […]
# [4] = tested on: patients with schizophrenia; settings: cited from earlier work
# healthy male subjects [5] = assay: Safety assessments (adverse events, laboratory tests, ECG, vital signs); format: in vivo, human
# Excerpt: The Statistics Department at Takeda Development Center Americas, Inc., generated a randomization schedule before the start of the study, and this randomization schedule maintained the investigational drug blind. During randomization, subjects were assigned a four-digit randomization sequence that encoded assignment of subjects to the treatment schedule. Subjects were randomized to one of nine treatment schedules and received placebo + ketamine (regimen A) and two of the following three treatment regimens: 3 mg of TAK-063 + ketamine (regimen B), 30 mg of TAK-063 + ketamine (regimen C), and 300 mg of TAK-063 + ketamine (regimen D). […] Treatment sequences are presented in Online Resource Supplementary Table S1. The study consisted of multiple visits with a different treatment protocol on each visit. The visits were standardized and included a screening period (day − 28 to day − 2), check-in (day − 1), a treatment period (days 1), completion of treatment visit (day 2), and a follow-up visit (day 14 ± 3 days after last TAK-063 dose). After each treatment period, subjects stayed overnight at the study site for observation and were discharged on day 2. Each participant completed the study when they completed the follow-up visit after their last treatment2.
# AEs, clinical laboratory results, ECG, vital signs, and suicide assessments were recorded after administration of TAK-063 and throughout the remainder of the study. Intensity of AEs was classified as mild, moderate, and severe, and each AE was assessed for association with study drug. AEs were assessed throughout the 2-day study visit, at the three treatment visits, at the study exit, and at the follow-up visit. ECG, vital signs, and clinical laboratory results were assessed at visit 1 during screening, day − 1, day 1 of each treatment period, day 2 of period 3 (study exit), the early termination visit, and the follow-up visit.
# In this study, the safety set, used for demographic and safety evaluations, included subjects who receive at least one dose of study medication. The PK set included all subjects in the safety set with at least one available drug concentration measurement. The PD set included all subjects in the safety set and with at least one valid PD assessment.
# [6] = Pharmacokinetics of TAK-063 in plasma after single oral dose; format: in vivo, human
# [7] = all 27 subjects, TAK-063 or placebo followed by ketamine
# [8] = all subjects, most frequently reported AEs
compound,measurement,setting,value
COc1cn(-c2ccc(-n3cccn3)cc2F)nc(-c2ccnn2-c2ccccc2)c1=O [TAK-063],change from baseline in PANSS score at week 6 vs placebo (primary endpoint),[1],did not meet its primary endpoint
same,PDE10A inhibition,[2],selective inhibitor
same,effects on fMRI BOLD signal during the resting state before ketamine infusion,healthy male subjects [3],region-specific effects
same,safety and tolerability in clinical studies,"[4]; ref Goldsmith et al. [2017], Tsai et al. [2016]",safe and well tolerated
same,effects in patients with schizophrenia,"[4]; ref Macek et al. [2016a], [b]","increases in electroencephalogram (EEG) gamma power, improvements in mismatch negativity, and some improvements in cognition"
same,EPS-type AE in one subject,healthy male subjects [5]; 30 mg,restlessness
same,EPS-type AE in one subject,healthy male subjects [5]; 300 mg,muscle tightness and restlessness
same,discontinuation because of EPS,healthy male subjects [5]; 300 mg,One subject
same,tolerability of the 300-mg dose,"healthy male subjects [5]; 300 mg, led to change of dose to 10 mg",higher than expected rates of dystonia and nausea
same,subjects with AEs consistent with extrapyramidal symptoms (EPS),healthy male subjects [5]; TAK-063 group overall,8.0%
same,subjects with AEs consistent with extrapyramidal symptoms (EPS) (number),healthy male subjects [5]; TAK-063 group overall,two
same,subjects who experienced AEs related to the study drug,healthy male subjects [5]; [7],88.9%
same,subjects who experienced AEs related to the study drug (number),healthy male subjects [5]; [7],24 subjects
same,severity of drug-related AEs,healthy male subjects [5]; all subjects,mild to moderate
same,fatigue,healthy male subjects [5]; [8],25.9%
same,nausea,healthy male subjects [5]; [8],40.7%
same,somnolence,healthy male subjects [5]; [8],40.7%
same,vomiting,healthy male subjects [5]; [8],63.0%
same,"clinically significant changes from baseline in vital signs, clinical laboratory tests and 12-lead ECGs",healthy male subjects [5]; baseline to post dose,No changes
same,deaths or serious AEs,healthy male subjects [5]; during the study,No deaths or serious AEs
same,participants discontinuing study drug because of AEs,healthy male subjects [5]; in vivo,one
same,overall safety and tolerability,healthy male subjects [5]; single oral doses with ketamine,safe and well tolerated
same,Dose proportionality of Cmax and AUC,[6]; dose range 3-30 mg,close to dose proportional increase in exposure
same,median tmax,"[6]; single oral dose, plasma, 3-30 mg",3 h
